Numbers after ± are expanded uncertainties.

The conditions of data set [1]: Crystal; for mass density: 298.15 K, 101.33 kPa, mass and volume of pellet; for Normal melting temperature: DTA.
Data set [2] is described as follows: Molar enthalpy of transition or fusion. The settings on record: Crystal; DSC.

A word on the mass density: it is the mass of a sample divided by its volume. Turning to `O=C1Cc2ccccc2CO1` [1,4-dihydro-3H-2-benzopyran-3-one], in data set [1], the mass density worked out at 1140 ± 10 kg/m3 and the Normal melting temperature came out at 82.73 ± 0.39 °C. In addition, the “Molar enthalpy of transition or fusion” value in data set [2] was 4.37 ± 0.112 kcal/mol.

Turning to `O=C1CCOc2ccccc21` [2,3-dihydro-4H-1-benzopyran-4-one], in data set [1], the mass density was determined as 1140 ± 10 kg/m3 and the Normal melting temperature is 39.13 ± 0.39 °C. In addition, the “Molar enthalpy of transition or fusion” value in data set [2] is 4 ± 0.129 kcal/mol.

The values above are taken from the NIST ThermoML archive (doi:10.1016/j.jct.2008.08.012).
